Results from PubChem BioAssay AID330 (DTP/NCI, 2004).
Values joined by “and” are separate entries in the source; they are usually repeats but may differ in a detail not shown here. Equal entries are not always repeated. Inconclusive results and toxic doses are left out. Rule for the calls: active = survival T/C of 150% or more; inactive = T/C below 125% in these data.

Test system: P388 leukemia ip, CD2F1 mice, survival T/C
Assay: NCI In Vivo Anticancer Drug Screen. Data for tumor model P388 Leukemia (intraperitoneal) in CD2F1 (CDF1) mice
Conditions: endpoint: median survival time, higher = longer survival
Method in brief: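 Mice carrying the transplanted tumor received test compound or vehicle. Survival was recorded in each group, and the value is the treated-group measurement divided by that of the vehicle-treated control group.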

[1] = dose: 50.0 mg/kg/injection, schedule: Q01DX005 (ip), vehicle: saline with Tween-80
[2] = dose: 60.0 mg/kg/injection, schedule: Q01DX005 (ip), vehicle: saline with Tween-80
[3] = dose: 120.0 mg/kg/injection, schedule: Q01DX005 (ip), vehicle: saline with Tween-80
[4] = dose: 100.0 mg/kg/injection, schedule: Q01DX009 (ip), vehicle: saline with Tween-80
[5] = dose: 200.0 mg/kg/injection, schedule: Q01DX009 (ip), vehicle: saline with Tween-80
[6] = dose: 25.0 mg/kg/injection, schedule: Q01DX009 (ip), vehicle: saline with Tween-80
[7] = dose: 50.0 mg/kg/injection, schedule: Q01DX009 (ip), vehicle: saline with Tween-80
[8] = dose: 100.0 mg/kg/injection, schedule: Q01DX009 (ip), vehicle: saline
[9] = dose: 200.0 mg/kg/injection, schedule: Q01DX009 (ip), vehicle: saline
[10] = dose: 100.0 mg/kg/injection, schedule: Q04DX003 (ip), vehicle: Klucel (hydroxypropylcellulose) (HPC)
[11] = dose: 200.0 mg/kg/injection, schedule: Q04DX003 (ip), vehicle: Klucel (hydroxypropylcellulose) (HPC)

Measured: T/C

COc1ccc(CN2CC(=O)N3Cc4ccccc4CN3C(=O)C2)cc1
inactive: [1] 103 % of control | dose: 100.0 mg/kg/injection, schedule: Q01DX005 (ip), vehicle: saline with Tween-80 103 % of control | dose: 200.0 mg/kg/injection, schedule: Q01DX005 (ip), vehicle: saline with Tween-80 103 % of control

CCOC(=O)c1cnc2c(cnn2CC)c1NN=C(C)C
inactive: dose: 66.0 mg/kg/injection, schedule: Q04DX003 (ip), vehicle: saline 109 % of control | dose: 100.0 mg/kg/injection, schedule: Q04DX003 (ip), vehicle: saline 109 % of control | dose: 150.0 mg/kg/injection, schedule: Q04DX003 (ip), vehicle: saline 104 % of control

COc1ccc2c(c1OC)C(=C(Cl)Cl)N1CCc3cc4c(cc3C1=C2C=O)OCO4
inactive: dose: 12.5 mg/kg/injection, schedule: Q01DX005 (ip), vehicle: saline with Tween-80 98 % of control | dose: 25.0 mg/kg/injection, schedule: Q01DX005 (ip), vehicle: saline with Tween-80 92 % of control | [1] 90 % of control and 96 % of control

CC(C)(C)SC(=S)SCC(=O)c1ccc(Cl)cc1
inactive: [2] 99 % of control | [3] 98 % of control | dose: 240.0 mg/kg/injection, schedule: Q01DX005 (ip), vehicle: saline with Tween-80 100 % of control

CC(=O)[C@H]1CC[C@H]2[C@@H]3C[C@H](F)C4=CC(=O)CC[C@]4(C)[C@H]3C(=O)C[C@]12C
inactive: [4] 100 % of control | [5] 100 % of control | dose: 400.0 mg/kg/injection, schedule: Q01DX009 (ip), vehicle: saline with Tween-80 100 % of control

O=C1Nc2cnc(Cl)nc2Nc2ccc(Cl)cc21
inactive: dose: 50.0 mg/kg/injection, schedule: Q01DX005 (ip), vehicle: Klucel (hydroxypropylcellulose) (HPC) 92 % of control | dose: 100.0 mg/kg/injection, schedule: Q01DX005 (ip), vehicle: Klucel (hydroxypropylcellulose) (HPC) 99 % of control | dose: 200.0 mg/kg/injection, schedule: Q01DX005 (ip), vehicle: Klucel (hydroxypropylcellulose) (HPC) 89 % of control

Oc1cccnc1Cl
inactive: [6] 110 % of control | [7] 114 % of control | [4] 114 % of control | [8] 102 % of control | [5] 119 % of control | [9] 101 % of control | dose: 400.0 mg/kg/injection, schedule: Q01DX009 (ip), vehicle: saline 108 % of control

Nc1ccc2[se]nc3c2c1C(=O)c1ccccc1-3
inactive: dose: 6.25 mg/kg/injection, schedule: Q01DX005 (ip), vehicle: Klucel (hydroxypropylcellulose) (HPC) 98 % of control | dose: 12.5 mg/kg/injection, schedule: Q01DX005 (ip), vehicle: Klucel (hydroxypropylcellulose) (HPC) 98 % of control | dose: 25.0 mg/kg/injection, schedule: Q01DX005 (ip), vehicle: Klucel (hydroxypropylcellulose) (HPC) 101 % of control

CC1COCCOC(=O)c2cccc(n2)C(=O)OCCOCC(C)O1 (centres undefined)
inactive: [10] 102 % of control | [11] 95 % of control | dose: 400.0 mg/kg/injection, schedule: Q04DX003 (ip), vehicle: Klucel (hydroxypropylcellulose) (HPC) 102 % of control

CCC[CH2][Sn]1([CH2]CCC)[O]C(=O)CCSCCC(=O)[O]1
inactive: dose: 1.56 mg/kg/injection, schedule: Q01DX005 (ip), vehicle: saline with Tween-80 100 % of control and 106 % of control | dose: 3.12 mg/kg/injection, schedule: Q01DX005 (ip), vehicle: saline with Tween-80 109 % of control and 115 % of control and 121 % of control | dose: 6.25 mg/kg/injection, schedule: Q01DX005 (ip), vehicle: saline with Tween-80 107 % of control

NC(=O)C(N)C(F)c1ccccc1 (centres undefined)
inactive: [2] 102 % of control | [3] 95 % of control

Cc1cc(C)n(-c2ccc(Cl)nn2)n1
inactive: dose: 50.0 mg/kg/injection, schedule: Q01DX009 (ip), vehicle: saline 99 % of control | [8] 95 % of control | [9] 100 % of control

COc1ccc2nc3cc(Cl)ccc3c(NCCC3CCCN4CCCCC34)c2c1 (centres undefined)
inactive: dose: 12.5 mg/kg/injection, schedule: Q01DX005 (ip), vehicle: distilled water + Tween-80 109 % of control | dose: 25.0 mg/kg/injection, schedule: Q01DX005 (ip), vehicle: distilled water + Tween-80 114 % of control

CCCCCCCC/C=C\C(O)=C1\C(=O)NC(CCCNC(=O)OCc2ccccc2)C1=O (centres undefined)
inactive: dose: 25.0 mg/kg/injection, schedule: Q04DX002 (ip), vehicle: saline with Tween-80 100 % of control | dose: 50.0 mg/kg/injection, schedule: Q04DX002 (ip), vehicle: saline with Tween-80 100 % of control | dose: 100.0 mg/kg/injection, schedule: Q04DX002 (ip), vehicle: saline with Tween-80 86 % of control | dose: 200.0 mg/kg/injection, schedule: Q04DX002 (ip), vehicle: saline with Tween-80 91 % of control | dose: 400.0 mg/kg/injection, schedule: Q04DX002 (ip), vehicle: saline with Tween-80 103 % of control

COC1=CC(=O)C=C(OC)C1=O
inactive: dose: 0.5 mg/kg/injection, schedule: Q01DX009 (ip), vehicle: saline with Tween-80 109 % of control | dose: 1.0 mg/kg/injection, schedule: Q01DX009 (ip), vehicle: saline with Tween-80 113 % of control | dose: 2.0 mg/kg/injection, schedule: Q01DX009 (ip), vehicle: saline with Tween-80 119 % of control | dose: 4.0 mg/kg/injection, schedule: Q01DX009 (ip), vehicle: saline with Tween-80 111 % of control

CCCCC/C(C)=C\CBr
inactive: [6] 96 % of control | [7] 99 % of control | [4] 89 % of control

Cc1ccc(N2N=NC3C4CCC(C)(C4(C)C)C32O)cc1 (centres undefined)
inactive: dose: 50.0 mg/kg/injection, schedule: Q04DX002 (ip), vehicle: other 92 % of control | dose: 100.0 mg/kg/injection, schedule: Q04DX002 (ip), vehicle: other 98 % of control | dose: 200.0 mg/kg/injection, schedule: Q04DX002 (ip), vehicle: other 93 % of control

CC(=O)OCC(=O)[C@@]1(O)CC[C@H]2[C@@H]3CCC4=CC(=O)[C@H](C)C[C@]4(C)[C@@]3(F)[C@@H](O)C[C@@]21C
inactive: [10] 100 % of control | [11] 110 % of control

CCCC(C)(O)/C(C)=N/O (centres undefined)
inactive: dose: 12.5 mg/kg/injection, schedule: Q01DX009 (ip), vehicle: saline with Tween-80 98 % of control | [6] 101 % of control | [7] 104 % of control and 87 % of control | [5] 90 % of control

CC1=CC(C)(O)C=C(C)C1=O
inactive: dose: 3.13 mg/kg/injection, schedule: Q01DX009 (ip), vehicle: water 105 % of control | dose: 6.25 mg/kg/injection, schedule: Q01DX009 (ip), vehicle: water 97 % of control | dose: 12.5 mg/kg/injection, schedule: Q01DX009 (ip), vehicle: water 96 % of control | dose: 25.0 mg/kg/injection, schedule: Q01DX009 (ip), vehicle: water 100 % of control | dose: 50.0 mg/kg/injection, schedule: Q01DX009 (ip), vehicle: water 99 % of control | dose: 100.0 mg/kg/injection, schedule: Q01DX009 (ip), vehicle: water 98 % of control

COc1cc(C2=N/C(=C/c3cccs3)C(=O)O2)cc(OC)c1OC
inactive: dose: 6.25 mg/kg/injection, schedule: Q01DX009 (ip), vehicle: Klucel (hydroxypropylcellulose) (HPC) 98 % of control | dose: 12.5 mg/kg/injection, schedule: Q01DX009 (ip), vehicle: Klucel (hydroxypropylcellulose) (HPC) 108 % of control | dose: 25.0 mg/kg/injection, schedule: Q01DX009 (ip), vehicle: Klucel (hydroxypropylcellulose) (HPC) 106 % of control

C=C(C)c1nc(N)nc(-c2ccc(OC)cc2)n1
inactive: dose: 100.0 mg/kg/injection, schedule: Q04DX002 (ip), vehicle: Klucel (hydroxypropylcellulose) (HPC) 98 % of control | dose: 200.0 mg/kg/injection, schedule: Q04DX002 (ip), vehicle: Klucel (hydroxypropylcellulose) (HPC) 94 % of control | dose: 400.0 mg/kg/injection, schedule: Q04DX002 (ip), vehicle: Klucel (hydroxypropylcellulose) (HPC) 93 % of control

NC(CCC(=O)NC(CSCNC(=O)Nc1ccc(Cl)cc1)C(=O)NCC(=O)O)C(=O)O (centres undefined)
inactive: dose: 60.0 mg/kg/injection, schedule: Q01DX005 (ip), vehicle: saline 97 % of control | dose: 120.0 mg/kg/injection, schedule: Q01DX005 (ip), vehicle: saline 97 % of control

COC(=O)C1(C(=O)OC)C2C=CC(Cl)C21 (centres undefined)
inactive: dose: 50.0 mg/kg/injection, schedule: Q01DX009 (ip), vehicle: Klucel (hydroxypropylcellulose) (HPC) 96 % of control | dose: 100.0 mg/kg/injection, schedule: Q01DX009 (ip), vehicle: Klucel (hydroxypropylcellulose) (HPC) 104 % of control | dose: 200.0 mg/kg/injection, schedule: Q01DX009 (ip), vehicle: Klucel (hydroxypropylcellulose) (HPC) 93 % of control
